This note sets out measurements from ChEMBL document CHEMBL4311933, “Biochemical and microbiological evaluation of N-aryl urea derivatives against mycobacteria and mycobacterial hydrolases” (Medchemcomm, 2019).

SMILES strings stand for the structures. Values after ≈ are worked out from the molar mass of the structure shown. Active and inactive are the calls of the source. The rule behind the calls is not given here.

For orientation: IC50 means the concentration that gives 50% inhibition. Usually MIC stands for the lowest concentration that inhibits growth of the organism. A high value points to weaker potency. For orientation: inhibition means the share of the control response that was lost under treatment. As a reminder, the Ki is a dissociation constant, usually derived from enzyme kinetics or from competition with a known ligand.

Series [1] deals with T1, Carboxylesterase/lipase Culp6 (Mycobacterium tuberculosis (strain ATCC 25618 / H37Rv), UniProt O53581).
T1 sequence (O53581 whole entry): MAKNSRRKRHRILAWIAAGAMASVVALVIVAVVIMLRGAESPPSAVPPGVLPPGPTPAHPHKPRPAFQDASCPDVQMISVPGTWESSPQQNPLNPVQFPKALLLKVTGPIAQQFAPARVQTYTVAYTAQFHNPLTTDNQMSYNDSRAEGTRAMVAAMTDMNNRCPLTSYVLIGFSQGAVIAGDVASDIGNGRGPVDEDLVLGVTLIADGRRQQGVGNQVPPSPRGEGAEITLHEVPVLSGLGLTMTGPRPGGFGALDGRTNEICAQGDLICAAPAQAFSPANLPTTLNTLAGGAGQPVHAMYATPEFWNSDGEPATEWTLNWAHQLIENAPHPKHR
Description: Inhibition of recombinant Mycobacterium tuberculosis H37Rv ATCC 25618 Rv3802c expressed in Escherichia coli T7 assessed as residual activity by measuring hydrolysis of resorufin butyrate at 200 uM using resorufin butyrate as substrate preincubated for 15 mins followed by substrate addition by relative to control. The settings on record: read-out: Activity.

Another series deals with L929. Nature of the series: Cytotoxicity against murine L929 assessed as reduction in cell viability after 24 hrs by MTT assay. The class given is cell-based. The conditions noted are these: Mus musculus, L929, 24 h.
In series [2] the target is T1, Carboxylesterase/lipase Culp6. Nature of the series: Inhibition of recombinant Mycobacterium tuberculosis H37Rv ATCC 25618 Rv3802c expressed in Escherichia coli T7 assessed as residual activity by measuring hydrolysis of resorufin butyrate at 500 uM using resorufin butyrate as substrate preincubated for 15 mins followed by substrate addition relative to control. The settings on record: for activity at 500 µM: read-out: Activity.

Series [3] concerns Mycolicibacterium smegmatis. Description: Antimycobacterial activity against Mycobacterium smegmatis mc2 155 after 7 days by resazurin microtiter assay. The class given is functional. The settings on record: MC2 155, 168 h.
A short description of series [4]: Selectivity index, ratio of IC50 for murine L929 cells to MIC for Mycobacterium tuberculosis H37Ra ATCC 25177. The settings on record: mouse, read-out: Selectivity Index. It counts as toxicity.
Series [5] can be described thus: Selectivity index, ratio of IC50 for murine L929 cells to MIC for Mycobacterium tuberculosis H37Rv mc2 6206. The conditions noted are these: mouse, read-out: Selectivity Index. It counts as toxicity.
Series [6] has as its system Mycobacterium tuberculosis. Nature of the series: Antimycobacterial activity against Mycobacterium tuberculosis H37Ra ATCC 25177 after 7 days by resazurin microtiter assay. It counts as functional. The conditions noted are these: H37Ra ATCC 25177, 168 h. A general note: The colour change of resazurin is a common sign of viable cells or microbes.
Series [7] has as its system Mycobacterium tuberculosis. Nature of the series: Antimycobacterial activity against Mycobacterium tuberculosis H37Rv mc2 6206 after 7 days by resazurin microtiter assay. The class given is functional. The settings on record: H37Rv mc2 6206, 168 h.
Series [8] deals with Mycobacteroides abscessus. Description: Antimycobacterial activity against Mycobacterium abscessus ATCC 19977 after 7 days by resazurin microtiter assay. It counts as functional. The conditions noted are these: ATCC 19977, 168 h.
Series [9] concerns Mycobacterium tuberculosis H37Rv. Nature of the series: Inhibition of recombinant Mycobacterium tuberculosis H37Rv ATCC 25618 mycolyltransferase expressed in Escherichia coli T7 at 500 uM using resorufin butyrate as substrate preincubated for 15 mins followed by substrate addition by fluorimetric assay.
Series [10] shares this test system. Nature of the series: Inhibition of recombinant Mycobacterium tuberculosis H37Rv ATCC 25618 mycolyltransferase expressed in Escherichia coli T7 assessed as residual activity by measuring hydrolysis of resorufin butyrate at 200 uM using resorufin butyrate as substrate preincubated for 15 mins followed by substrate addition by fluorimetric assay relative to control.

Series [11] addresses T1, Carboxylesterase/lipase Culp6. Nature of the series: Inhibition of recombinant Mycobacterium tuberculosis H37Rv ATCC 25618 Rv3802c cutinase expressed in Escherichia coli T7 at 500 uM using resorufin butyrate as substrate preincubated for 15 mins followed by substrate addition relative to control.
For series [12] the target is unchanged. Nature of the series: Inhibition of recombinant Mycobacterium tuberculosis H37Rv ATCC 25618 Rv3802c cutinase expressed in Escherichia coli T7 assessed as inhibition constant using resorufin butyrate as substrate preincubated for 15 mins followed by substrate addition.

`O=C(NCC1CCCCC1)n1nnc2ccccc21`: the activity at 200 µM in [1] came to 43%.
On to `O=C(NCC1CCCCC1)Nc1cc(F)cc(F)c1`, for which the IC50 with L929 came out at 70 µM. The activity at 500 µM in [2] is 72.5%. The MIC in series [3] was found to be 62.5 µM (≈ 16.8 µg/mL); in series [6] it was 25 µM (≈ 6.71 µg/mL); in series [7] it was 3.12 µM (≈ 0.837 µg/mL); in [8], 25 µM (≈ 6.71 µg/mL). Besides, the selectivity ratio in series [4] and in series [5] was more than 20 throughout.
In the case of `CSc1nncn1C(=O)NCC1CCCCC1`, in [1], the activity at 200 µM turned out to be 40%.
Turning to `O=C(NCc1cccs1)Nc1ccccc1`, the activity at 500 µM in series [2] is 50.5%. In series [9], the inhibition result was “inactive”.
For the molecule `O=C(Nc1ccccc1)NC1CCCCC1`, the activity at 500 µM in series [2] amounted to 84.3%. For the same molecule, the inhibition entry in series [9] is “inactive”.
As to `O=C(Nc1cc(F)cc(F)c1)N(Cc1ccc(F)cc1)Cc1ccco1`, the activity at 200 µM in series [1] worked out at 100%.
Turning to `O=C(NCc1ccco1)n1ccnn1`, the Activity in series [10] amounted to 14%. Also, in [1], the activity at 200 µM is 72.5%.
Consider `O=C(Nc1ccccc1)N1CCCCC1`, for which the activity at 500 µM in [2] is 43%. Further, in series [9], the inhibition result was “inactive”.
For `O=C(NCc1ccco1)Nc1ccccc1`, in that order: 38.2% and “inactive”.
In the case of `O=C(NCc1ccco1)Nc1ccc(F)cc1`, in [2], the activity at 500 µM amounted to 54.9%.
Turning to `O=C(NCCc1ccccc1)Nc1ccccc1`, in series [2], the activity at 500 µM stood at 73.1%. Further, the inhibition entry in series [9] is “inactive”.
Consider `O=C(NCc1nc2ccccc2[nH]1)Nc1cc(F)cc(F)c1`, for which the activity at 200 µM in [1] was found to be 20%.
For the molecule `O=C(Nc1ccccc1)NC1CCCC1`, the activity at 500 µM in series [2] came out at 56.2%. Also, in series [9], the inhibition entry was “inactive”.
Take `O=C(Nc1cc(F)cc(F)c1)N(Cc1ccco1)Cc1ccco1`: in series [1], the activity at 200 µM amounted to 100%.
As to `O=C(NCc1ccco1)Nc1ccc(C(F)(F)F)cc1`, the activity at 500 µM in series [2] amounted to 82%.
On to `O=C(NCC1CCCCC1)Nc1ccc(F)cc1`, for which the activity at 500 µM in series [2] worked out at 66%.
For `O=C(NCC1CCCCC1)Nc1ccc(C(F)(F)F)cc1`, in the series on L929, the IC50 was 56 µM. For the same molecule, in series [2], the activity at 500 µM turned out to be 83.6%. In addition, the MIC is more than 100 µM in [3], 12.5 µM (≈ 3.75 µg/mL) in series [6], 1.5 µM (≈ 0.45 µg/mL) in series [7] and more than 100 µM in [8]. Besides, the selectivity ratio in [4] and in series [5] was more than 20 each time.
On to `O=C(NCc1ncc[nH]1)Nc1cc(F)cc(F)c1`, for which the activity at 200 µM in series [1] turned out to be 100%.
Turning to `O=C(NCC1CCCCC1)Nc1ccc(Br)cc1`, the activity at 500 µM in series [2] was 100%.
`O=C(NCc1ccco1)Nc1cc(F)cc(F)c1`: the inhibition at 500 µM in [11] was 88%. In addition, the activity at 500 µM in [2] was found to be 13%. In series [12], the Ki was 5.2 µM.
In the case of `O=C(NCc1ccco1)n1nnc2ccccc21`, the Activity in series [10] was found to be 80%. Moreover, the activity at 200 µM in [1] is 44%.
For `O=C(NCC1CCCCC1)Nc1ccccc1`, the activity at 500 µM in [2] was found to be 53%. Besides, the inhibition result in [9] is “inactive”.
As for `O=C(NCC1CCCCC1)Nc1ccc([N+](=O)[O-])cc1`, the IC50 in the series on L929 worked out at 57 µM. Also, the Activity entry in series [2] (500 µM) is “Active”. Moreover, the MIC in [3] was 15.6 µM (≈ 4.33 µg/mL); in [6] it was 25 µM (≈ 6.93 µg/mL); in [7] it was 3.12 µM (≈ 0.865 µg/mL); in [8], more than 100 µM. Besides, the selectivity ratio in [4] and in [5] was more than 20 throughout.
